Values of other authors in publication PMC11320581 (ACS Infectious Diseases, 2024).

Tested on: M. tuberculosis gyrase with single-resistance mutations at GyrA Ala90 and Asp94
Details: cited from earlier work

C[C@@H]1CN2c3c(cc4c(N5C(=O)OC[C@@H]5C)noc4c3F)CC3(C(=O)NC(=O)NC3=O)[C@H]2[C@H](C)O1 [zoliflodacin, Zoliflodacin]
maximal double-stranded DNA scission with fluoroquinolone-resistant gyrases, fold higher than wild-type: 2- to 5 fold
